How the values were obtained:
patients = details: long-term data; cited from earlier work
patients with RA [1] = experiment: STEMETRA open-label pilot study, efficacy (DAS28) of step-down SC-MTX; type: in vivo, human
Procedure: (§1) The STEp-down MEthotrexate Therapy in Rheumatoid Arthritis (STEMETRA) was an open-label, monocentric, pilot study with the primary aim of assessing the safety and the tolerability of high dose subcutaneous (SC)-MTX in patients with RA. […] In view of the exploratory nature of this study, the expected enrolment was of 10 patients. Patients received a SC-MTX commercially available formulation (Reumaflex®, Alfasigma, Italy), dispensed as prefilled syringes of 25 mg, 20 mg, and 15 mg. For reaching the dosage of 50 mg at the beginning of the study, patients injected two SC-MTX 25 mg syringes consecutively.
In the present experimental examples, the Disease Activity Score based on 28 joints (DAS28) testing was carried out according to the protocols described in Fransen J. et al., “Rheumatoid Arthritis measures: Disease Activity Score (DAS), Disease Activity Score-28 (DAS28), Rapid Assessment of Disease Activity in Rheumatology (RADAR), and Rheumatoid Arthritis Disease Activity Index (RADAI)”, Arthritis Rheum 2003; 49, Suppl 9: pages 214 to 224, as well as described in van der Heijde D. M. et al., “Development of a disease activity score based on judgment in clinical practice by rheumatologists”, J Rheumatol. 1993 March, 20(3), pages 579 to 581.
(§2) The protocol treatment schedule comprised administration of SC-MTX 50 mg/week for 4 consecutive weeks, followed by 25 mg/week for 4 weeks, and then 15 mg/week for 4 weeks. All patients received oral supplementation of folinic acid (leucovorin) 12 mg, twelve hours after the injection of SC-MTX. All patients had to be MTX-naïve; previous treatment with other conventional synthetic disease modifying anti-rheumatic drugs (cs)DMARDs was allowed only if they have already been withdrawn, for inefficacy or tolerability, before the baseline visit.
Eligible patients were≥18 years old affected by rheumatic arthritis (RA), according to the 2010 American College of […]/European league against rheumatism (ACR/EULAR) classification criteria^12, naïve to MTX and with an active disease, defined as a value of disease activity score (DAS)28≥3.2, with at least four tender joints and four swollen joints. Main exclusion criteria were: ongoing or previous treatment with bDMARDs, severe anaemia (defined as haemoglobin<[…]), severe thrombocytopenia (defined as platelets count<100,000/mm^3), severe leucopoenia or neutropenia (defined as white blood cells count<3,000 mm^3 or granulocytes count<1,000 mm^3), severe hepatic dysfunction [defined as aspartate aminotransferase (AST) or alanine aminotransferase (ALT)[…] the upper limit of normal(ULN)], renal function impairment (defined as creatinine clearance<40 mL/min), alcohol intake>70 g/week, pregnancy or breastfeeding, ongoing severe infections, previous infection with Hepatitis B (HBV) or Hepatitis C (HCV), positivity of Quantiferon or Mantoux test.
During each visit, disease activity score based on 28 joints (DAS28) [with both erythrocytes sedimentation rate (ESR) and C-reactive protein (CRP)], simplified disease activity index (SDAI), clinical disease activity index (CDAI), and the Health Assessment Questionnaire (HAQ) were evaluated and calculated as efficacy measures.

[2] = cited from earlier work
[3] = system: rheumatoid arthritis (RA); details: treating rheumatoid arthritis; cited from earlier work
[4] = system: resistant rheumatoid arthritis; details: oral, 5 to 10 to 15 mg/m^2 within 16 weeks; 36 test persons; cited from earlier work
[5] = system: active rheumatoid arthritis; details: intramuscular, 15 to 45 mg/m^2 within 22 weeks, plus 5 mg folinic acid per week; 27 test persons; recurrent chest infections or inefficacy; cited from earlier work
[6] = system: refractory rheumatoid arthritis; details: IV 500 mg/m^2, 24 weeks, plus oral folinic acid 25 mg/m^2; 8 test persons; inefficacy, GI intolerance or sciatica; cited from earlier work
rheumatoid arthritis [7] = details: IV 50 mg/week for 2 to 20 weeks; 14 test persons; oral ulceration, GI symptoms, liver enzyme abnormalities; cited from earlier work
patients with RA [8] = experiment: STEMETRA open-label pilot study, safety and tolerability (adverse events, CTCAE v4.0); type: in vivo, human
Procedure: as §1, §2
If a patient experience fatigue (with an intensity≥grade 2), he/she could receive a double dose of folinic acid: 12 mg at 12 and 24 hours after SC-MTX, respectively.
All the adverse events (AE) occurred during the study and follow-up periods were recorded according to the Common Terminology Criteria for Adverse Events (version 4.0).

rheumatoid arthritis [9] = details: IV, initial 40 mg/m^2, final 26 mg/m^2; 10 test persons; infected plantar or severe nausea; cited from earlier work
[10] = week 12, nine patients, step-down SC-MTX 50/25/15 mg/week, oral folinic acid 12 mg
[11] = nine patients, study and follow-up periods

For `CN(Cc1cnc2nc(N)nc(N)c2n1)c1ccc(C(=O)N[C@@H](CCC(=O)O)C(=O)O)cc1` [MTX, (2S)-2-[[4-[(2,4-diaminopteridin-6-yl)methyl-methylamino]benzoyl]amino]-pentanedioic acid], the “patients who could experience liver enzymes elevation” value (patients) is given as “more than 10%”, the “patients who had to stop MTX because of liver enzymes elevation” value (patients) is given as “less than 5%” and the “patients with a significant reduction of DAS28” value (patients with RA [1]; step-down SC-MTX regimen, discussion summary) is given as about 90%. The “patients showing a reduction in DAS28>1.2 from baseline” value (patients with RA [1]; week 12, 8 out of 9 patients, step-down SC-MTX 50/25/15 mg/week, oral folinic acid 12 mg) was 88.8%, the “patients who achieved DAS28 remission” value (patients with RA [1]; week 12, nine patients, SC-MTX 50 mg/week 4 weeks, then 25 mg/week 4 weeks, then 15 mg/week 4 weeks, oral folinic acid 12 mg) was 44.4% and the “patients showing moderate disease activity (DAS28)” value (patients with RA [1]; [10]) was 11.1%. The “patients who reached low disease activity (DAS28)” value (patients with RA [1]; [10]) was 22.2%, the “patients who still had high disease activity (DAS28)” value (patients with RA [1]; [10]) was 22.2% and the “dose over which absorption is known to plateau” value ([2]; oral (OR-MTX)) was 15 mg. The “dosage at which oral absorption starts to plateau” value ([2]; oral) was 15 mg/week, the “efficacy rate as a monotherapy” value [3] was “about 35%” and the “test persons who discontinued the treatment due to high toxicity” value [4] was 33%. The “test persons who discontinued the treatment” value [5] was 18.5%, the “test persons who withdrew the treatment” value [6] was 37% and the “test persons who had to reduce or discontinue the treatment due to toxicity” value (rheumatoid arthritis [7]) was 35%. For the same compound, the “increase of alanine aminotransferase (ALT)” value (patients with RA [8]; Patient #6, week 4, resolved spontaneously, normal at week 8) was under 2 ULN, the “number of patients in whom AEs occurred” value (patients with RA [8]; [11]) was 4 and the “total number of AEs” value (patients with RA [8]; [11]) was 5. For the same compound, the “severe AEs” value (patients with RA [8]; nine patients, whole study) was “none”, the “number of patients with a mild (and transitory) increase in ALT” value (patients with RA [8]; week 4) was “one” and the “AEs occurring in the first 4 weeks” value (patients with RA [8]; while taking SC-MTX 50 mg/week) was “none”. The “test persons who did not complete the study” value (rheumatoid arthritis [9]) was “Two”.
